Reference: US20030236301A1, “Liposomal delivery of vitamin E based compounds” (priority 2001, published 2003)
“And” between values parts separate entries of the source, which are not always exact repeats. Identical values can stand only once. “Also recorded” adds a separate entry of the source.

Experiments:
[1] = test system: 66 c1.4 GFP murine mammary tumor cells; test: Tumor growth of 66 c1.4-GFP mammary tumor cells in Balb/c mice (tumor volume); settings: for inhibition of tumor growth: Example 18: liposomal formulation by aerosol; for reduction of mean tumor volume vs aerosol control: Example 25: liposomal α-TEA/aerosol
Experimental: 66 c1.4-GFP cells were harvested by trypsinization, centrifuged, resuspended in McCoy's media, containing no supplements at a density of 2×10^5/100 μl. Mice were injected in the inguinal area at a point equal distance between the 4th and 5th nipples on the right side using a 23 gauge needle.
50 mice were assigned (10 per group) to aerosol treatment, aerosol control, oral treatment, oral control, or to the no treatment group so that the average tumor volume for all groups were closely matched. […] Tumors were measured using calipers every other day, and volumes were calculated using the formula: volume (mm^3) [width (mm)^2×length (mm)]/2. Body weights were determined weekly.
Balb/c mice were injected with 200,000 66 c1.4 GFP cells subcutaneous in the mammary fat pad area between the 4th and 5th nipple on the right side of the body.
Mice are injected with 200,000 66 c1.4 GFP murine mammary tumor cells as described on day 0. Treatments are initiated on day 9 when tumors reached 1-3 mm in size. Aerosol treatments of α-TEA liposomes (5 mg α-TEA/mouse) are administered daily for 16 days (FIG. 8). Data represent the mean+/−Standard Error (SE), N=10 mice for control and treatment groups.
Balb/c mice were injected s.c. with 2×10^5 66 c1.4-GFP cells in the inguinal area between the 4th and 5th nipple on the right side of the body. When tumors reached 2×2-4×4 mm (9 days after tumor injection), mice were placed into 5 groups ((Group 1: untreated control, Group 2: liposome/aerosol control, Group 3: liposomal α-TEA aerosol treatment, Group 4: peanut oil/gavage control, Group 5: α-TEA in peanut oil/gavage treatment) of 10 mice/group) such that the mean tumor volume of each group was closely matched. Daily treatments were initiated on day 9 after tumor injection.
Balb/c mice were injected with 200,000 66 c1.4 GFP cells subcutaneous in the mammary fat pad area between the 4th and 5th nipple on the right side of the body. […] Animals were treated with α-TEA in liposome, vitamin E succinate in liposome, or control liposome alone via aerosol, 7 days per week, for 21 days. Animals were given 75 mg compound via nebulization per day such that each animal received 36 μg compound per day.
The size of the tumors, 9-21 days after injection of 200,000 66 c1.4 GFP cells between the 4th and 5th nipple on the right side of each mouse, is determined. Treatments are initiated on day 9 after tumor inoculation. Each group consists of n=10+/−SE. Gavage Treatment=Treatments of 5 mg of α-TEA in ethanol and peanut oil (0.1 ml volume) are administered daily starting on day 9 after tumor inoculation and continuing through day 21. Gavage Control=Mice received peanut oil and ethanol alone (0.1 ml volume)/daily, starting on day 9 after tumor inoculation and continuing through day 21. Data (tumor size) are depicted as the mean+/−standard error for days 9, 11, 13, 15, 17, 19, and 21.
Balb/c mice were injected with 200,000 66 c1.4 GFP cells subcutaneous in the mammary fat pad area between the 4th and 5th nipple on the right side of the body. […] Animals were treated with α-TEA in liposome vitamin E succinate in liposome, or control liposome alone via oral gavage, 2 times per day, 7 days per week, for 21 days. Animals were given a total of 6 mg compound per day.

MDA-MB-435 GFP FL cells = test: Tumor growth of MDA-MB-435 GFP FL breast cancer cells in nude mice; assay type: in vivo, Nu/Nu athymic nude mice; settings: for reduction of tumor growth: Example 32: liposome gavage, 8 mg per day
Experimental: Animals were given a total of 8 mg compound per day. […] Alpha-TEA liposome gavage reduced tumor growth by 68, 75, 78, 79 and 79% on days 27, 29, 31, 33, and 35, respectively (FIG. 15).
Animals were […] 3 ppm methylselenocysteine (MSC) in water, α-TEA in liposome via aerosol, or gavaged 10 mg/kg b.w. trans-resveratrol (t-RES) in first 1:1. EtOH:physiological saline, and starting at day 24, 6.5% EtOH and 93.5% Neobee oil. A combination group was treated with each of the above three compounds, and a control group was treated with aerosolized liposome. 100 μl water, and 50 μl of the t-Res solvent. Animals were treated seven days a week, for 35+ days.

66 c1.4-GFP cells [2] = test: Apoptosis by morphological evaluation of DAPI-stained nuclei; settings: three days; for nuclear morphology of DAPI stained cells: 10 μg/ml
Experimental: Briefly, 1×10^5 cells/well in 12-well plates were cultured overnight to permit attachment. […] After treatment, floating cells plus scraped-released adherent cells were pelleted by centrifugation for 5 min at 350×g, washed one time with phosphate buffered saline (PBS; 137 mM NaCl, 2.7 mM KCL, 10.4 mM Na2HPO4, 10.5 mM KH2PO4; pH 7.2), and stained with 2 μg/ml of 4′,6-diamidino-2-phenylindole dihydrochloride (DAPI, Boehringer Mannheim, Indianapolis, Ind.) in 100% methanol for 15 min at 37° C.
Cells were viewed at 400× magnification with a Zeiss ICM 405 fluorescent microscope using a 487701 filter. […] Data are reported as percentage of apoptotic cells per cell population, i.e., number apoptotic cells/total number of cells counted. Three different microscopic fields were examined and 200 cells counted at each location for a minimum of 600 cells counted per slide. Apoptotic data are presented as mean±S.D. for three independently conducted experiments.

[3] = test system: 66 c1.4 GFP murine mammary tumor cells; test: Lung and lymph node metastases of 66 c1.4-GFP tumors in Balb/c mice; assay type: in vivo
From the text: Metastastic lesions in the five lung lobes were counted visually at time of sacrifice. Fluorescent green micro-metastatic cancer cell colonies in the left lung lobe and lymph nodes were counted using a Nikon fluorescence microscope (TE-200) with a 20×objective (200× magnification) and Image-Pro Plus (version 4.1; Media Cybernetics, Silver Spring, Md.) software associated with the microscope. Fluorescent lesions were separated into three size grouping: <5 μm, 5-10 μm and >10 μm.
At sacrifice, lungs were taken, examined visually for metastatic lesions and frozen for analyses of micrometastases by fluorescence.
Use of a Nikon fluorescence microscope and Image-Pro Plus software permitted measurement of green fluorescing micrometastases into three size groupings of <5 μm, 5-10 μm and >10 μm.
At sacrifice, the left lung lobe of each mouse of flash frozen and saves for detection of GFP expressing micrometatstic lesions via fluorescent microscopy.

[4] = test system: cp-70 human ovarian cancer cells; test: Apoptosis in cp-70 ovarian cancer cells in vitro; assay type: cell-based; settings: treated in culture
[5] = test system: A2780 cisplatin-sensitive cell line; test: Apoptosis in A2780 ovarian cancer cells in vitro; assay type: cell-based, human; settings: treated in culture
[6] = AeroTech II nebulizer; geometric standard deviation 2.04
Experimental: Aerosol was administered to mice as previously described (17).

[7] = Serum and tissue levels of α-TEA after liposomal aerosol (HPLC); assay type: in vivo, mice
Experimental: Eight mice are treated via pulmonary aerosol delivery with 40 mg of α-TEA (5 mg/mouse) in 6 ml liposomes. The mice inhaled the aerosol over a period of 30 minutes until delivery was complete. Mice are sacrificed 0, 2, 6, or 24 hours after the treatment ended. Serum and tissue levels of α-TEA are determined by HPLC analyses (FIG. 7).

[8] = Body weight and long term safety in Balb/c mice; assay type: in vivo
Experimental: Body weights were determined weekly.
Nine days after tumor inoculation, treatments groups are initiated: Aerosol Treatment (TX)=aerosol delivery of α-TEA liposome (5 mg/mouse)/daily through day 23. Aerosol Control=Aerosol delivery of liposome composition only daily through day 23. Gavage treatment=gavage administration of α-TEA at 5 mg/mouse in ethanol/peanut oil daily through day 23. Gavage control=gavage administration of ethanol/peanut oil only through day 23. Mice were weighed at the initiation of treatment (day 9) and thereafter on days 13, 16, 20, and 23 (FIG. 6). Data are presented as the mean+/−standard deviation.

[9] = test system: Poly (ADP-Ribose) Polymerase (PARP) cleavage in 66 c1.4-GFP cells; test: Western immunoblot detection of PARP cleavage fragment; assay type: cell-based, mouse; settings: 48 hours
Experimental: Poly (ADP-Ribose) Polymerase cleavage was analyzed as an alternate method for detecting apoptosis. 66 c1.4-GFP cells were treated as described above for the DAPI assay. Following the PBS wash, cells were suspended in lysis buffer (1×PBS, 1% Nonidet P-40, 0.5% sodium deoxycholate, 0.1% sodium dodecyl sulfate (SDS), 1 μg/ml leupeptin, 1 μg/ml aprotinin, 1 mM dithiothreitol (DTT), 2 mM sodium orthovanadate, 10 μg/ml phenylmethylsulfonyl fluoride (PMSF)) for 30 min at 4° C., vortexed, and supernatants collected by centrifugation at 15,000×g for 20 min. Protein concentrations were determined using the Bio-Rad (Bradford) protein assay (Bio-Rad Laboratories, Hercules, Calif.), and samples (100 μg/lane) resolved on 7.5% SDS-polyacrylamide gels electrophoresed under reducing conditions.
Proteins were electroblotted onto a nitrocellulose membrane ([…] Optitran BA-S-supported nitrocellulose; Schleicher and Schuell, Keene, N.H.). After transfer, membranes were blocked with blocking buffer [25 mM Tris-HCl (pH 8.0), 125 mM NaCl, 0.5% Tween-20, and 5% non-fat dry milk] for 45 min at room temperature. Immunoblotting was performed using 1 μg of primary rabbit anti-human Poly (ADP-Ribose) Polymerase antibody [PARP (H-250), Santa Cruz Biotechnology, Santa Cruz, Calif.], and horseradish peroxidase-conjugated goat anti-rabbit immunoglobulin was used as the secondary antibody (Jackson Immunoresearch Laboratory, West Grove, Pa.) at a 1:3,000 dilution. Horseradish peroxidase-labeled bands from washed blots were detected by enhanced chemiluminescence (Pierce, Rockford, Ill.) and autoradiography (Kodak BioMax film; Rochester, N.Y.).

66 c1.4-GFP cells [10] = test: Colony-forming assay; settings: 10 days
Experimental: 66 c1.4-GFP cells were seeded at 600 cells per 35×10 mm tissue culture plate (Nunclon, Rochester, N.Y.) and allowed to adhere over night at 37° C. […] Treatments were left on the cells for 10 days without change of media. After 10 days, media were removed and plates were washed with PBS three times. Cells were stained for 30 min with 1% methylene blue in PBS and colonies >0.5 mm manually counted.

[11] = Aerosol characteristics: estimated α-TEA deposited in respiratory tract (HPLC, All Glass Impinger); set-up: species or system mouse; settings: liposomal aerosol, 15 min, estimated deposited fraction 30%
Experimental: HPLC analyses were conducted on α-TEA liposomes recovered from aerosol in the All Glass Impinger (Ace Glass Co., Vineland, N.J.). The delivered dosage=concentration (μg/L)×mouse minute volume (1-min/kg)×duration of delivery (min)×estimated deposited fraction (30%; 17).

[12] = 75 mg in nebulizer/day, day 15 of treatment
[13] = 75 mg in nebulizer/day, day 17 of treatment
[14] = Example 18: liposomal preparation delivered by aerosol
[15] = Example 31: liposomal formulation via gavage, 6 mg per day
[16] = Example 33: liposomal aerosol, α-TEA 5 mg/d, 9NC 2 μg/d in nebulizer, listed as Lip/α-TEA
[17] = liposomal aerosol, at sacrifice

## CC(=O)Oc1c(C)c(C)c2c(c1C)CCC(C)(CCCC(C)CCCC(C)CCCC(C)C)O2 (racemic) [dl-α tocopherol acetate, dl-α-tocopherol acetate]
[1]; [12]
  inhibition of tumor growth: 29%
[1]; [13]
  inhibition of tumor growth: 57%

## Cc1cc(O)cc2c1O[C@](C)(CCC[C@H](C)CCC[C@H](C)CCCC(C)C)CC2 [RRR-delta tocopherol, RRR-delta-tocopherol]
[1]; [12]
  inhibition of tumor growth: 25%
[1]; [13]
  inhibition of tumor growth: 40%

## Cc1c(C)c2c(c(C)c1O)CC[C@@](C)(CCC[C@H](C)CCC[C@H](C)CCCC(C)C)O2 [RRR-α tocopherol, RRR-α-tocopherol]
[1]; [14]
  effect on tumor growth: enhanced tumor growth
  tumor volume compared with control mice: not significantly greater

## CC(C)=CCC/C(C)=C/CC/C(C)=C/CC[C@]1(C)CCc2c(C)c(O)c(C)c(C)c2O1 [RRR-α-tocotrienol]
[1]; [12]
  inhibition of tumor growth: 34%
[1]; [13]
  inhibition of tumor growth: 27%

## Cc1c(O)cc2c(c1C)O[C@](C)(CCC[C@H](C)CCC[C@H](C)CCCC(C)C)CC2 [RRR-γ tocopherol, RRR-γ-tocopherol]
[1]; [14]
  effect on tumor growth: enhanced tumor growth
  tumor volume compared with control mice: significantly higher

## Oc1ccc(/C=C/c2cc(O)cc(O)c2)cc1 [t-RES, trans-resveratrol, reference compound]
MDA-MB-435 GFP FL cells; Example 35: day 35
  increase of tumor volume from the control: 61.2%

## Cc1c(C)c2c(c(C)c1OC(=O)CCC(=O)O)CC[C@@](C)(CCC[C@H](C)CCC[C@H](C)CCCC(C)C)O2 [vitamin E succinate, RRR-α-tocopheryl succinate, reference compound]
66 c1.4-GFP cells [2]; 2.5 μg/ml
  apoptosis (percentage of apoptotic cells): 3%
66 c1.4-GFP cells [2]; 5 μg/ml
  apoptosis (percentage of apoptotic cells): 5%
66 c1.4-GFP cells [2]
  nuclear morphology of DAPI stained cells: exhibited condensation and fragmented DNA
[3]; [15]
  effect on lung metastasis: no effect on lung metastasis
  effect on lymph node micrometastatic lesions (FIG. 14B): not effective
[1]; Example 26: liposome aerosol, 75 mg in nebulizer/day, day 17
  reduction of tumor growth: 76%
[1]; Example 30: liposome gavage, 6 mg per day, 21 days
  effect on tumor growth: did not reduce tumor growth

## Cc1c(C)c2c(c(C)c1OCC(=O)O)CC[C@@](C)(CCC[C@H](C)CCC[C@H](C)CCCC(C)C)O2 [α-TEA, 2,5,7,8-tetramethyl-(2R-(4R,8R,12-trimethyltridecyl)chroman-6-yloxy) Acetic Acid]
66 c1.4-GFP cells [2]; 2.5 μg/ml
  apoptosis (percentage of apoptotic cells): 5%
66 c1.4-GFP cells [2]; 5 μg/ml
  apoptosis (percentage of apoptotic cells): 6%
66 c1.4-GFP cells [2]
  nuclear morphology of DAPI stained cells: exhibited condensation and fragmented DNA
[4]
  induction of apoptosis: undergo apoptosis
[5]
  induction of apoptosis: undergo apoptosis
MDA-MB-435 GFP FL cells; day 27
  reduction of tumor growth: 68%
MDA-MB-435 GFP FL cells; day 29
  reduction of tumor growth: 75%
MDA-MB-435 GFP FL cells; day 31
  reduction of tumor growth: 78%
MDA-MB-435 GFP FL cells; day 33
  reduction of tumor growth: 79%
MDA-MB-435 GFP FL cells; day 35
  reduction of tumor growth: 79%
MDA-MB-435 GFP FL cells; Example 35: day 35
  decrease of tumor volume from the control: 47.8%
[3]; [15]
  lymph node micrometastatic lesions (average): 3.1±0.8
[3]; [16]
  Inhibition (%) Metastases Lung: 71%
  Inhibition (%) Metastases Lymphnode: 94%
[3]; Liposomal, Aerosol, 5 mg/d, vs aerosol control
  Inhibition (%) Metastases Lung: 81%
[3]; Liposomal, Gavage, 3 mg/2× d
  Inhibition (%) Metastases Lung: 59%
  Inhibition (%) Metastases Lymphnode: 56%
[3]; [17]
  No. Animals/Group with Visible Lung Metastases: 0/10
  No. Visible Lung Tumor Foci/Animal: No visible tumors
[3]; liposomal aerosol, at sacrifice, listed as Aer./Liposome/α-TEA
  No. Visible Lung Tumor Foci/Animal: 0
[1]; day 13 of treatment
  reduction of mean tumor volume vs aerosol control: 50%
[1]; day 17 of treatment
  reduction of mean tumor volume vs aerosol control: 61%
[1]; Example 26: liposome aerosol, 75 mg in nebulizer/day, day 21
  reduction of tumor growth: 67%
[1]; Example 27: gavage, 5 mg in ethanol and peanut oil daily, days 9-21
  tumor weights vs gavage control: no significant differences
[1]; Example 28: gavage, 5 mg/day/mouse EtoH/peanut oil formulation
  mean tumor volume vs gavage control: did not differ
[1]; Example 30: liposome gavage, 6 mg per day, day 15
  reduction of tumor growth: 85%
[1]; Example 30: liposome gavage, 6 mg per day, day 17
  reduction of tumor growth: 85%
[1]; Example 30: liposome gavage, 6 mg per day, day 21
  reduction of tumor growth: 70%
[1]; [16]
  Inhibition (%) Tumor Growth: 65%
[1]; Liposomal, Gavage, 3 mg/2× d
  Inhibition (%) Tumor Growth: 70%
[6]
  mass median aerodynamic diameter of liposome aerosol: 2.01 μm
[7]; liposomal aerosol 5 mg/mouse over 30 minutes, 0 hours after treatment ended
  serum and tissue presence of α-TEA: found only in the stomach tissue
[7]; liposomal aerosol 5 mg/mouse, 2 hours after completion of treatment
  serum and tissue presence of α-TEA: present in the serum and stomach
[7]; liposomal aerosol 5 mg/mouse, 6 hours after completion of treatment
  serum and tissue presence of α-TEA: present in the liver and stomach
[7]; liposomal aerosol 5 mg/mouse, 24 hours after completion of treatment
  serum and tissue presence of α-TEA: present in the liver and stomach
[8]; non-tumor bearing mice, aerosol or gavage for 17 days, kept eleven months
  long term adverse effects: did not show any adverse effects
[8]; tumor-bearing mice, liposome aerosol or gavage in ethanol/peanut oil, 5 mg/mouse daily
  body weight vs control groups: no significant weight differences; also recorded: No differences in mean body weights
[9]; 5 μg/ml
  PARP cleavage (84 kDa fragment): only intact PARP protein was detected
[9]; 10 μg/ml
  PARP cleavage (84 kDa fragment): evident
[9]; 20 μg/ml
  PARP cleavage (84 kDa fragment): evident
66 c1.4-GFP cells [10]; 1.25 μg/ml
  decrease of colony formation compared to EtOH control: 30%
66 c1.4-GFP cells [10]; 5 μg/ml
  colony formation: No colonies formed
66 c1.4-GFP cells [10]; 10 μg/ml
  colony formation: No colonies formed
[11]
  α-TEA deposited in the respiratory tract of each mouse each day: approximately 36 μg and ~36 μg
